Assays:
NFAT3 = type: cell-based, rat; conditions: 10 uM
[1] = system: SINV-infected differentiated CSM14.1 cells; type: cell-based, rat; conditions: 10 uM
[2] = system: Sindbis virus (SINV, TE strain); type: cell-based

`CCCOc1ccccc1-c1nc2nn[nH]c2c(=O)[nH]1` [zaprinast] was tested. Which “cytoplasmic NFAT3 (Western blot)” value (NFAT3) did it give?
The value was “remained constant at all timepoints”.

What about the “effect on NFAT3 activation” value (NFAT3) of the same compound?
The value was “no effect”.

What about the “nuclear NFAT3 (Western blot)” value (NFAT3) of the same compound?
Its value is “remained constant at all timepoints”.

And the “viability / survival of infected cells” value [1]?
Its value is “did not detectably affect cell survival”.

What about the “viral titers / viral replication versus untreated SINV infection (in words)” value [2] of the same compound?
The value was “tended to slightly increase viral titers at most time points”.

Reference: patent US20150224170A1 (priority 2010, published 2015)
